According to PubChem BioAssay (NCI):
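In this assay, cells in 96-well plates receive the compound at five concentrations for 48 hours. Endpoints are linearly interpolated between the surrounding concentrations. Definition used: TGI = concentration required for complete inhibition of growth.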

Key:
Experiment in all cases: growth of human tumour cells (NCI), 48 h
SK-MEL-5 melanoma = tested on: SK-MEL-5 melanoma
PC-3 prostate = tested on: PC-3 prostate
TK-10 renal = tested on: TK-10 renal
SF-268 CNS = tested on: SF-268 CNS
SW-620 colon = tested on: SW-620 colon
COLO 205 colon = tested on: COLO 205 colon
SN12C renal = tested on: SN12C renal
BT-549 breast = tested on: BT-549 breast
U251 CNS = tested on: U251 CNS
NCI/ADR-RES ovarian = tested on: NCI/ADR-RES ovarian
ACHN renal = tested on: ACHN renal
786-0 renal = tested on: 786-0 renal
HT29 colon = tested on: HT29 colon
MALME-3M melanoma = tested on: MALME-3M melanoma
K-562 leukemia = tested on: K-562 leukemia
OVCAR-4 ovarian = tested on: OVCAR-4 ovarian
M14 melanoma = tested on: M14 melanoma
MOLT-4 leukemia = tested on: MOLT-4 leukemia
KM12 colon = tested on: KM12 colon
HOP-62 NSCLC = tested on: HOP-62 NSCLC
MDA-MB-435 = tested on: MDA-MB-435
HCT-15 colon = tested on: HCT-15 colon
SF-539 CNS = tested on: SF-539 CNS
CCRF-CEM leukemia = tested on: CCRF-CEM leukemia
SNB-75 CNS = tested on: SNB-75 CNS
CAKI-1 renal = tested on: CAKI-1 renal
SK-MEL-28 melanoma = tested on: SK-MEL-28 melanoma
RPMI-8226 leukemia = tested on: RPMI-8226 leukemia
DU-145 prostate = tested on: DU-145 prostate
A549 NSCLC = tested on: A549 NSCLC
HCT-116 colon = tested on: HCT-116 colon
NCI-H23 lung = tested on: NCI-H23 lung
HL-60(TB) leukemia = tested on: HL-60(TB) leukemia
EKVX NSCLC = tested on: EKVX NSCLC
MDA-MB-231 breast = tested on: MDA-MB-231 breast
NCI-H226 lung = tested on: NCI-H226 lung
SNB-19 CNS = tested on: SNB-19 CNS
NCI-H460 lung = tested on: NCI-H460 lung
MCF7 breast = tested on: MCF7 breast
OVCAR-5 ovarian = tested on: OVCAR-5 ovarian
UACC-257 melanoma = tested on: UACC-257 melanoma
OVCAR-8 ovarian = tested on: OVCAR-8 ovarian
SK-MEL-2 melanoma = tested on: SK-MEL-2 melanoma
IGROV1 ovarian = tested on: IGROV1 ovarian
HOP-92 NSCLC = tested on: HOP-92 NSCLC
HCC-2998 colon = tested on: HCC-2998 colon
SR leukemia = tested on: SR leukemia
LOX IMVI melanoma = tested on: LOX IMVI melanoma
SF-295 CNS = tested on: SF-295 CNS
NCI-H522 lung = tested on: NCI-H522 lung
SK-OV-3 ovarian = tested on: SK-OV-3 ovarian
OVCAR-3 ovarian = tested on: OVCAR-3 ovarian
HS 578T breast = tested on: HS 578T breast
A498 renal = tested on: A498 renal

Structure (SMILES): Cn1c(=O)cc(N2CCCC2)[nH]c1=O
- TGI (SK-MEL-5 melanoma): > 100 µM
- TGI (PC-3 prostate): > 100 µM
- TGI (TK-10 renal): > 100 µM
- TGI (SF-268 CNS): > 100 µM
- TGI (SW-620 colon): > 100 µM
- TGI (COLO 205 colon): > 100 µM
- TGI (SN12C renal): > 100 µM
- TGI (BT-549 breast): > 100 µM
- TGI (U251 CNS): > 100 µM
- TGI (NCI/ADR-RES ovarian): > 100 µM
- TGI (ACHN renal): > 100 µM
- TGI (786-0 renal): > 100 µM
- TGI (HT29 colon): > 100 µM
- TGI (MALME-3M melanoma): > 100 µM
- TGI (K-562 leukemia): > 100 µM
- TGI (OVCAR-4 ovarian): > 100 µM
- TGI (M14 melanoma): > 100 µM
- TGI (MOLT-4 leukemia): > 100 µM
- TGI (KM12 colon): > 100 µM
- TGI (HOP-62 NSCLC): > 100 µM
- TGI (MDA-MB-435): > 100 µM
- TGI (HCT-15 colon): > 100 µM
- TGI (SF-539 CNS): > 100 µM
- TGI (CCRF-CEM leukemia): > 100 µM
- TGI (SNB-75 CNS): > 100 µM
- TGI (CAKI-1 renal): > 100 µM
- TGI (SK-MEL-28 melanoma): > 100 µM
- TGI (RPMI-8226 leukemia): > 100 µM
- TGI (DU-145 prostate): > 100 µM
- TGI (A549 NSCLC): > 100 µM
- TGI (HCT-116 colon): > 100 µM
- TGI (NCI-H23 lung): > 100 µM
- TGI (HL-60(TB) leukemia): > 100 µM
- TGI (EKVX NSCLC): > 100 µM
- TGI (MDA-MB-231 breast): > 100 µM
- TGI (NCI-H226 lung): > 100 µM
- TGI (SNB-19 CNS): > 100 µM
- TGI (NCI-H460 lung): > 100 µM
- TGI (MCF7 breast): > 100 µM
- TGI (OVCAR-5 ovarian): > 100 µM
- TGI (UACC-257 melanoma): > 100 µM
- TGI (OVCAR-8 ovarian): > 100 µM
- TGI (SK-MEL-2 melanoma): > 100 µM
- TGI (IGROV1 ovarian): > 100 µM
- TGI (HOP-92 NSCLC): > 100 µM
- TGI (HCC-2998 colon): > 100 µM
- TGI (SR leukemia): > 100 µM
- TGI (LOX IMVI melanoma): > 100 µM
- TGI (SF-295 CNS): > 100 µM
- TGI (NCI-H522 lung): > 100 µM

Structure (SMILES): Nc1ncnc2c1ncn2C1OC(COC2C(CO)OC(OC(C(=O)O)C(O)C(OP(=O)(O)O)C(O)C(=O)O)C(O)C2O)C(O)C1O (stereo not given)
- TGI (SK-OV-3 ovarian): > 100 µM
- TGI (OVCAR-3 ovarian): > 100 µM
- TGI (SK-MEL-5 melanoma): > 100 µM
- TGI (PC-3 prostate): > 100 µM
- TGI (TK-10 renal): > 100 µM
- TGI (SF-268 CNS): > 100 µM
- TGI (SW-620 colon): > 100 µM
- TGI (COLO 205 colon): > 100 µM
- TGI (BT-549 breast): > 100 µM
- TGI (U251 CNS): > 100 µM
- TGI (ACHN renal): > 100 µM
- TGI (786-0 renal): > 100 µM
- TGI (HT29 colon): > 100 µM
- TGI (MALME-3M melanoma): > 100 µM
- TGI (K-562 leukemia): > 100 µM
- TGI (OVCAR-4 ovarian): > 100 µM
- TGI (M14 melanoma): > 100 µM
- TGI (MOLT-4 leukemia): > 100 µM
- TGI (KM12 colon): > 100 µM
- TGI (HOP-62 NSCLC): > 100 µM
- TGI (MDA-MB-435): > 100 µM
- TGI (HCT-15 colon): > 100 µM
- TGI (SF-539 CNS): > 100 µM
- TGI (HS 578T breast): 91.2 µM
- TGI (A498 renal): > 100 µM
- TGI (CCRF-CEM leukemia): > 100 µM
- TGI (SNB-75 CNS): > 100 µM
- TGI (CAKI-1 renal): > 100 µM
- TGI (SK-MEL-28 melanoma): > 100 µM
- TGI (RPMI-8226 leukemia): > 100 µM
- TGI (A549 NSCLC): > 100 µM
- TGI (HCT-116 colon): > 100 µM
- TGI (NCI-H23 lung): > 100 µM
- TGI (HL-60(TB) leukemia): > 100 µM
- TGI (EKVX NSCLC): > 100 µM
- TGI (MDA-MB-231 breast): > 100 µM
- TGI (NCI-H226 lung): > 100 µM
- TGI (SNB-19 CNS): > 100 µM
- TGI (NCI-H460 lung): > 100 µM
- TGI (MCF7 breast): > 100 µM
- TGI (OVCAR-5 ovarian): > 100 µM
- TGI (UACC-257 melanoma): > 100 µM
- TGI (OVCAR-8 ovarian): > 100 µM
- TGI (SK-MEL-2 melanoma): > 100 µM
- TGI (IGROV1 ovarian): > 100 µM
- TGI (HCC-2998 colon): > 100 µM
- TGI (SR leukemia): > 100 µM
- TGI (LOX IMVI melanoma): > 100 µM
- TGI (SF-295 CNS): > 100 µM
- TGI (NCI-H522 lung): > 100 µM
